PubChem BioAssay AID248 (DTP/NCI, 2004)
Where “and” joins values, the source holds several entries; their conditions need not be identical. Equal entries are not always repeated. Inconclusive results and toxic doses are left out. Cut-off read from the data, not from the text of the source: active = T/C of 150% or more; inactive = T/C below 125%.

System: L1210 leukemia ip in BDF1 mice, survival T/C
Test: NCI In Vivo Anticancer Drug Screen. Data for tumor model L1210 Leukemia (intraperitoneal) in B6D2F1 (BDF1) mice
Details: endpoint: mean survival time, higher = longer survival
How it was run: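 Survival endpoint. Drug-treated group vs vehicle group, expressed as T divided by C. Tumor passaged by transplantation.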

[1] = dose: 100.0 mg/kg/injection, schedule: Q01DX001 (ip), vehicle: saline
[2] = dose: 200.0 mg/kg/injection, schedule: Q01DX001 (ip), vehicle: saline
[3] = dose: 400.0 mg/kg/injection, schedule: Q01DX001 (ip), vehicle: saline
[4] = dose: 50.0 mg/kg/injection, schedule: Q01DX009 (ip), vehicle: saline with Tween-80
[5] = dose: 100.0 mg/kg/injection, schedule: Q01DX009 (ip), vehicle: saline with Tween-80
[6] = dose: 100.0 mg/kg/injection, schedule: Q04DX003 (ip), vehicle: saline with Tween-80
[7] = dose: 200.0 mg/kg/injection, schedule: Q04DX003 (ip), vehicle: saline with Tween-80
[8] = dose: 50.0 mg/kg/injection, schedule: Q01DX009 (ip), vehicle: Klucel (hydroxypropylcellulose) (HPC)
[9] = dose: 100.0 mg/kg/injection, schedule: Q01DX009 (ip), vehicle: Klucel (hydroxypropylcellulose) (HPC)
[10] = dose: 100.0 mg/kg/injection, schedule: Q04DX003 (ip), vehicle: Klucel (hydroxypropylcellulose) (HPC)
[11] = dose: 200.0 mg/kg/injection, schedule: Q01DX009 (ip), vehicle: Klucel (hydroxypropylcellulose) (HPC)
[12] = dose: 200.0 mg/kg/injection, schedule: Q04DX003 (ip), vehicle: Klucel (hydroxypropylcellulose) (HPC)
[13] = dose: 400.0 mg/kg/injection, schedule: Q01DX009 (ip), vehicle: Klucel (hydroxypropylcellulose) (HPC)
[14] = dose: 400.0 mg/kg/injection, schedule: Q04DX003 (ip), vehicle: Klucel (hydroxypropylcellulose) (HPC)
[15] = dose: 25.0 mg/kg/injection, schedule: Q01DX009 (ip), vehicle: Klucel (hydroxypropylcellulose) (HPC)
[16] = dose: 400.0 mg/kg/injection, schedule: Q04DX003 (ip), vehicle: saline with Tween-80
[17] = dose: 100.0 mg/kg/injection, schedule: Q01DX001 (ip), vehicle: Klucel (hydroxypropylcellulose) (HPC)
[18] = dose: 200.0 mg/kg/injection, schedule: Q01DX001 (ip), vehicle: Klucel (hydroxypropylcellulose) (HPC)
[19] = dose: 12.5 mg/kg/injection, schedule: Q01DX009 (ip), vehicle: saline
[20] = dose: 25.0 mg/kg/injection, schedule: Q01DX009 (ip), vehicle: saline
[21] = dose: 50.0 mg/kg/injection, schedule: Q01DX001 (ip), vehicle: Klucel (hydroxypropylcellulose) (HPC)

Measured: T/C

OCC1OC(n2c(N3CCCCC3)nc3ccccc32)C(O)C1O (stereo unspecified)
inactive: [1] 102 % of control | [2] 105 % of control | [3] 105 % of control

CNc1ccccc1C=O
inactive: [1] 94 % of control | [2] 97 % of control | [3] 100 % of control

CCOC(=O)CC1(C)OCC(c2ccccc2)O1 (stereo unspecified)
inactive: dose: 222.0 mg/kg/injection, schedule: Q01DX Z (ip), vehicle: saline 106 % of control | dose: 333.0 mg/kg/injection, schedule: Q01DX Z (ip), vehicle: saline 86 % of control | dose: 500.0 mg/kg/injection, schedule: Q01DX Z (ip), vehicle: saline 91 % of control

CN1CCCN(C)C1
inactive: [4] 100 % of control | [5] 100 % of control | [6] 93 % of control | [7] 88 % of control

CC(C)N1CSC(=S)N(Cc2ccccc2)C1
inactive: [8] 108 % of control | [9] 92 % of control | [10] 98 % of control | [11] 91 % of control | [12] 95 % of control | [13] 94 % of control | [14] 90 % of control

COc1ccc(/C=N/n2c3ccccc3c3ccccc32)cc1OCCN(C)C
inactive: dose: 3.12 mg/kg/injection, schedule: Q01DX009 (ip), vehicle: Klucel (hydroxypropylcellulose) (HPC) 96 % of control | dose: 6.25 mg/kg/injection, schedule: Q01DX009 (ip), vehicle: Klucel (hydroxypropylcellulose) (HPC) 101 % of control | dose: 12.5 mg/kg/injection, schedule: Q01DX009 (ip), vehicle: Klucel (hydroxypropylcellulose) (HPC) 97 % of control | [15] 102 % of control | dose: 25.0 mg/kg/injection, schedule: Q04DX003 (ip), vehicle: Klucel (hydroxypropylcellulose) (HPC) 98 % of control | dose: 50.0 mg/kg/injection, schedule: Q04DX003 (ip), vehicle: Klucel (hydroxypropylcellulose) (HPC) 96 % of control

CCN(CC)C(C(=O)Nc1ccccc1)C(=O)Nc1ccccc1
inactive: [6] 92 % of control | [7] 94 % of control | [16] 90 % of control

N#CCCSc1ccccc1
inactive: dose: 25.0 mg/kg/injection, schedule: Q01DX009 (ip), vehicle: saline with Tween-80 112 % of control | [4] 91 % of control | [5] 100 % of control and 105 % of control | dose: 100.0 mg/kg/injection, schedule: Q04DX002 (ip), vehicle: saline with Tween-80 86 % of control | dose: 200.0 mg/kg/injection, schedule: Q04DX002 (ip), vehicle: saline with Tween-80 100 % of control

CCCNC(=O)Nc1ccc(OC)cc1Cl
inactive: [9] 93 % of control | [11] 93 % of control | [13] 93 % of control

CCOC(=O)c1ccc(NC(=O)c2cccc(Cl)c2)cc1
inactive: dose: 100.0 mg/kg/injection, schedule: Q04DX002 (ip), vehicle: Klucel (hydroxypropylcellulose) (HPC) 94 % of control

CCCCCC/C=C/[N+]([O-])=NC(COC)C(C)O (stereo unspecified)
inactive: dose: 5.3 mg/kg/injection, schedule: Q01DX Z (ip), vehicle: carboxymethylcellulose (CMC) 103 % of control | dose: 8.0 mg/kg/injection, schedule: Q01DX Z (ip), vehicle: carboxymethylcellulose (CMC) 106 % of control | dose: 12.0 mg/kg/injection, schedule: Q01DX Z (ip), vehicle: carboxymethylcellulose (CMC) 101 % of control | dose: 18.0 mg/kg/injection, schedule: Q01DX Z (ip), vehicle: carboxymethylcellulose (CMC) 95 % of control

Fc1ccc(/C=C2/c3cc(Cl)ccc3-c3c(Cl)cc(Cl)cc32)cc1
inactive: [17] 96 % of control | [9] 98 % of control | [10] 98 % of control | [18] 90 % of control | [11] 104 % of control | [12] 90 % of control | dose: 400.0 mg/kg/injection, schedule: Q01DX001 (ip), vehicle: Klucel (hydroxypropylcellulose) (HPC) 89 % of control | [13] 114 % of control | [14] 95 % of control

CC(=O)c1c2ccccc2cc2ccccc12
inactive: [1] 106 % of control | [2] 106 % of control | [3] 101 % of control

CN(C)c1ccc(/C=N/Nc2nnc(N/N=C/c3ccc(N(C)C)cc3Cl)c3ccccc23)c(Cl)c1
inactive: dose: 50.0 mg/kg/injection, schedule: Q01DX001 (ip), vehicle: saline 102 % of control | [1] 100 % of control | [2] 100 % of control | [3] 92 % of control

CC(=O)Oc1cc(C(C)C)c(OCCN(C)C)cc1C
inactive: dose: 6.25 mg/kg/injection, schedule: Q01DX009 (ip), vehicle: saline 94 % of control | [19] 98 % of control | [20] 100 % of control

NNc1ccc(-c2ccc(NN)cc2)cc1
inactive: [7] 95 % of control | [16] 98 % of control

N=C(N)SC(c1ccccc1)c1ccccc1
inactive: dose: 25.0 mg/kg/injection, schedule: Q01DX001 (ip), vehicle: Klucel (hydroxypropylcellulose) (HPC) 97 % of control | [21] 104 % of control | [17] 101 % of control | [1] 98 % of control

Fc1cc(F)c(CCl)c(F)c1
inactive: dose: 100.0 mg/kg/injection, schedule: Q01DX009 (ip), vehicle: acetone 94 % of control

NC(=O)c1ccccc1OC(=O)Nc1cc([N+](=O)[O-])ccc1F
inactive: [15] 104 % of control | [8] 107 % of control | [9] 94 % of control and 92 % of control

O=C(O)C1C(C(=O)O)C2(Cl)C(Cl)=C(Cl)C1(Cl)C2(Cl)Cl.[Co] (stereo unspecified)
inactive: [19] 116 % of control | dose: 25.0 mg/kg/injection, schedule: Q01DX009 (ip), vehicle: saline sonified 112 % of control | [20] 110 % of control | dose: 33.0 mg/kg/injection, schedule: Q01DX009 (ip), vehicle: saline sonified 108 % of control | [21] 98 % of control | dose: 50.0 mg/kg/injection, schedule: Q01DX009 (ip), vehicle: saline 115 % of control | dose: 75.0 mg/kg/injection, schedule: Q01DX009 (ip), vehicle: saline sonified 112 % of control | [17] 110 % of control | dose: 100.0 mg/kg/injection, schedule: Q01DX009 (ip), vehicle: saline 124 % of control | [18] 106 % of control

S=c1[nH]c2ccccc2o1
inactive: [5] 93 % of control | dose: 100.0 mg/kg/injection, schedule: Q04DX003 (ip), vehicle: other 101 % of control | dose: 200.0 mg/kg/injection, schedule: Q01DX009 (ip), vehicle: saline with Tween-80 100 % of control | dose: 200.0 mg/kg/injection, schedule: Q04DX003 (ip), vehicle: other 93 % of control | dose: 400.0 mg/kg/injection, schedule: Q04DX003 (ip), vehicle: other 96 % of control

S=C(N/N=C/C(c1ccccc1)c1ccccc1)Nc1ccccc1
inactive: dose: 100.0 mg/kg/injection, schedule: Q01DX001 (ip), vehicle: saline with Tween-80 95 % of control | [5] 86 % of control | dose: 200.0 mg/kg/injection, schedule: Q01DX001 (ip), vehicle: saline with Tween-80 102 % of control | dose: 400.0 mg/kg/injection, schedule: Q01DX001 (ip), vehicle: saline with Tween-80 98 % of control | dose: 400.0 mg/kg/injection, schedule: Q01DX009 (ip), vehicle: saline with Tween-80 86 % of control
